Common to all, as to type: cell-based
In one test the test system is E. coli DH5α. Put plainly: Antibacterial activity: MIC and growth curve against E. coli DH5α in 96-well plate. As to conditions: minimal inhibitory concentration against E. coli DH5α; 96-well plate, 5×10^5 CFU/mL, 37° C., judged after 8 h. In a few lines: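 Log-phase bacteria (OD600 ~0.5) resuspended in LB at 5×10^5 CFU/mL, exposed to recombinant protein at 50, 25, 12.5 μg/mL final in triplicate, 37 °C shaking at 175 rpm. OD600 read every 30 min; MIC is lowest concentration showing no growth.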

For a further test, the system named is E. coli BL21. Put plainly: MIC against Gram-negative bacteria: E. coli BL21. As to conditions: 5×10^5 CFU/mL; for MIC against E. coli BL21: 96-well plate, 37° C., 10 h. In a few lines: (§1)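 First, colonies from LB agar were grown in LB at 37° C, 185 rpm, to McFarland turbidity 0.5, then centrifuged and resuspended in fresh LB. Next, wells received 5×10^5 CFU/mL bacteria plus two-fold serially diluted EGF domain protein (triplicate). Finally, plates were shaken at 37° C and the no-growth concentration taken as MIC.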

A further test has as its system Pseudomonas aeruginosa. The experiment in a line: MIC against Gram-negative bacteria: Pseudomonas aeruginosa. As to conditions: 5×10^5 CFU/mL; for MIC against P. aeruginosa: 96-well plate, 37° C., 10 h. A digest of the protocol: as §1
The next test has as its system Klebsiella pneumonia. The experiment in a line: MIC against Gram-negative bacteria: Klebsiella pneumonia. To be noted: 5×10^5 CFU/mL; for MIC against K. pneumonia: 96-well plate, 37° C., 10 h. A digest of the protocol:
as §1

The subject of another test is Enterobacter cloacae. Put plainly: MIC against Gram-negative bacteria: Enterobacter cloacae. As to conditions: 5×10^5 CFU/mL; for MIC against E. cloacae: 96-well plate, 37° C., 10 h. A digest of the protocol: as §1
The next test relates to Aeromonas hydrophila. The experiment in a line: MIC against Gram-negative bacteria: Aeromonas hydrophila. To be noted: 5×10^5 CFU/mL; for MIC against A. hydrophila: 96-well plate, 37° C., 10 h. In a few lines: as §1
A further test concerns Citrobacter diversus. The experiment in a line: MIC against Gram-negative bacteria: Citrobacter diversus. To be noted: 5×10^5 CFU/mL; for MIC against C. diversus: 96-well plate, 37° C., 10 h. A digest of the protocol: as §1
Another test has as its system Moraxella catarrhalis. The experiment in a line: MIC against Gram-negative bacteria: Moraxella catarrhalis. To be noted: 5×10^5 CFU/mL; for MIC against M. catarrhalis: 96-well plate, 37° C., 10 h. A digest of the protocol:
as §1

For another test, the system named is Proteus mirabilis. Put plainly: MIC against Gram-negative bacteria: Proteus mirabilis. As to conditions: 5×10^5 CFU/mL; for MIC against P. mirabilis: 96-well plate, 37° C., 10 h. A digest of the protocol:
as §1

The test system of the next test is Proteus vulgaris. The experiment in a line: MIC against Gram-negative bacteria: Proteus vulgaris. To be noted: 5×10^5 CFU/mL; for MIC against P. vulgaris: 96-well plate, 37° C., 10 h. A digest of the protocol: as §1
Another test has as its system Serratia marcescens. The experiment in a line: MIC against Gram-negative bacteria: Serratia marcescens. To be noted: 5×10^5 CFU/mL; for MIC against S. marcescens: 96-well plate, 37° C., 10 h. In a few lines: as §1
Setting [1] is: 10 h cultivation at 37° C., two-fold serial dilution.

Turning to “PRT508 (CECSHLGNNCDPKTGRCICPPNTIGEKCSKCAPNTWGHSITTGCKA; listed as Homo sapiens)”, the MIC in the test on E. coli DH5α came out at 12.5 µg/mL. Moreover, the “MIC against E. coli BL21” value in the test on E. coli BL21 was 25 µg/mL. Moreover, the “MIC against P. aeruginosa” value against Pseudomonas aeruginosa came out at 50 µg/mL. In the test with Klebsiella pneumonia, the “MIC against K. pneumonia” value is 25 µg/mL. Besides, the “MIC against E. cloacae” value against Enterobacter cloacae turned out to be 12.5 µg/mL. Also, the “MIC against A. hydrophila” value with Aeromonas hydrophila was 50 µg/mL. In addition, the “MIC against C. diversus” value against Citrobacter diversus was 100 µg/mL. The “MIC against M. catarrhalis” value in the test on Moraxella catarrhalis came to 50 µg/mL. Besides, the “MIC against P. mirabilis” value against Proteus mirabilis came out at 12.5 µg/mL. Besides, the “MIC against P. vulgaris” value against Proteus vulgaris came to 12.5 µg/mL. Further, the “MIC against S. marcescens” value in the test with Serratia marcescens is 25 µg/mL.
The substance “PRT528 (CSCNSNGQLGSCHPLTGDCINQEPKDSSPAEECDD; listed as Homo sapiens)” displayed a minimal inhibitory concentration (MIC) against E. coli DH5α of 12.5 µg/mL. In the test with E. coli BL21, the “MIC against E. coli BL21” value is 25 µg/mL. Further, in the test with Pseudomonas aeruginosa, the “MIC against P. aeruginosa” value was found to be 50 µg/mL. Also, the “MIC against K. pneumonia” value against Klebsiella pneumonia stood at 25 µg/mL. For the same substance, the “MIC against E. cloacae” value against Enterobacter cloacae is 12.5 µg/mL. Moreover, the “MIC against A. hydrophila” value in the test with Aeromonas hydrophila worked out at 25 µg/mL. In addition, the “MIC against C. diversus” value in the test on Citrobacter diversus is 50 µg/mL. For the same substance, the “MIC against M. catarrhalis” value with Moraxella catarrhalis is 25 µg/mL. For the same substance, in the test on Proteus mirabilis, the “MIC against P. mirabilis” value is 12.5 µg/mL. In addition, the “MIC against P. vulgaris” value in the test on Proteus vulgaris amounted to 25 µg/mL. The “MIC against S. marcescens” value in the test with Serratia marcescens was 50 µg/mL.
“PRT1221 (DINECLQSPCKNGAICQNFPGSFNCVCKTGYTGKMCE; listed as Homo sapiens)” gave a minimum inhibitory concentration (MIC) with E. coli DH5α of 25 µg/mL. Further, the “MIC against E. coli BL21” value in the test on E. coli BL21 (E. coli BL21) was determined as 12.5 µg/mL. For the same substance, the “MIC against P. aeruginosa” value with Pseudomonas aeruginosa (Pseudomonas aeruginosa) was 25 µg/mL. Further, the “MIC against K. pneumonia” value with Klebsiella pneumonia (Klebsiella pneumonia) amounted to 25 µg/mL. In addition, in the test on Enterobacter cloacae (Enterobacter cloacae), the “MIC against E. cloacae” value was determined as 50 µg/mL. Also, in the test on Aeromonas hydrophila (Aeromonas hydrophila), the “MIC against A. hydrophila” value is 25 µg/mL. In the test on Citrobacter diversus (Citrobacter diversus), the “MIC against C. diversus” value turned out to be 12.5 µg/mL. Moreover, the “MIC against M. catarrhalis” value against Moraxella catarrhalis (Moraxella catarrhalis) turned out to be 50 µg/mL. The “MIC against P. mirabilis” value with Proteus mirabilis (Proteus mirabilis) was determined as 25 µg/mL. In the test with Proteus vulgaris (Proteus vulgaris), the “MIC against P. vulgaris” value came to 12.5 µg/mL. The “MIC against S. marcescens” value in the test with Serratia marcescens (Serratia marcescens) stood at 50 µg/mL.
“PRT772 (TIVSTESLETLAPGLCQEGQIWNGKQCVCPQGYVGYQCL; listed as Homo sapiens)” yielded an MIC in the test with E. coli DH5α of 12.5 µg/mL. For the same substance, the “MIC (μg/mL) E. coli BL21” value in the test on E. coli BL21 (E. coli BL21, 10 h cultivation at 37° C.) is 50 µg/mL. Moreover, the “MIC (μg/mL) P. aeruginosa” value with Pseudomonas aeruginosa (P. aeruginosa, 10 h cultivation at 37° C.) was 12.5 µg/mL. For the same substance, the “MIC (μg/mL) K. pneumonia” value in the test with Klebsiella pneumonia (K. pneumonia, 10 h cultivation at 37° C.) turned out to be 50 µg/mL. For the same substance, in the test on Enterobacter cloacae (E. cloacae, 10 h cultivation at 37° C.), the “MIC (μg/mL) E. cloacae” value was 12.5 µg/mL. In the test on Aeromonas hydrophila (A. hydrophila, 10 h cultivation at 37° C.), the “MIC (μg/mL) A. hydrophila” value stood at 50 µg/mL. The “MIC (μg/mL) C. diversus” value against Citrobacter diversus (C. diversus, 10 h cultivation at 37° C.) turned out to be 12.5 µg/mL. In addition, the “MIC (μg/mL) M. catarrhalis” value against Moraxella catarrhalis (M. catarrhalis, 10 h cultivation at 37° C.) worked out at 25 µg/mL. The “MIC (μg/mL) P. mirabilis” value against Proteus mirabilis (P. mirabilis, 10 h cultivation at 37° C.) is 50 µg/mL. For the same substance, the “MIC (μg/mL) P. vulgaris” value against Proteus vulgaris (P. vulgaris, 10 h cultivation at 37° C.) amounted to 25 µg/mL. Further, the “MIC (μg/mL) S. marcescens” value with Serratia marcescens (S. marcescens, 10 h cultivation at 37° C.) was 12.5 µg/mL.
Consider “PRT1141 (EINECSSEPCKNNGTCVDLTNRFFCNCEPEYHGPFCE; listed as Homo sapiens)”, for which the MIC in the test on E. coli DH5α turned out to be 50 µg/mL. Also, the “MIC E. coli BL21” value against E. coli BL21 (setting [1]) worked out at 12.5 µg/mL. Besides, the “MIC P. aeruginosa” value against Pseudomonas aeruginosa (setting [1]) was 50 µg/mL. The “MIC K. pneumonia” value in the test on Klebsiella pneumonia (setting [1]) came out at 12.5 µg/mL. In the test with Enterobacter cloacae (setting [1]), the “MIC E. cloacae” value is 50 µg/mL. In addition, the “MIC A. hydrophila” value with Aeromonas hydrophila (setting [1]) was determined as 12.5 µg/mL. In addition, the “MIC C. diversus” value in the test on Citrobacter diversus (setting [1]) is 25 µg/mL. Also, the “MIC M. catarrhalis” value in the test on Moraxella catarrhalis (setting [1]) worked out at 50 µg/mL. In addition, the “MIC P. mirabilis” value against Proteus mirabilis (setting [1]) is 25 µg/mL. Also, in the test on Proteus vulgaris (setting [1]), the “MIC P. vulgaris” value was determined as 12.5 µg/mL. Also, the “MIC S. marcescens” value with Serratia marcescens (setting [1]) is 25 µg/mL.

A word on the MIC: it is the least concentration at which growth counts as inhibited. Low values mean greater potency, high ones weaker potency.
